{"source": "ChEMBL document CHEMBL2331215", "about": "“Discovery of novel N-substituted oxindoles as selective m1 and m4 muscarinic acetylcholine receptors partial agonists” (ACS Med Chem Lett, 2013)", "key": {"[1]": {"target": "T1, Muscarinic acetylcholine receptor M5 (Homo sapiens) (UniProt P08912)", "T1 sequence (whole entry)": "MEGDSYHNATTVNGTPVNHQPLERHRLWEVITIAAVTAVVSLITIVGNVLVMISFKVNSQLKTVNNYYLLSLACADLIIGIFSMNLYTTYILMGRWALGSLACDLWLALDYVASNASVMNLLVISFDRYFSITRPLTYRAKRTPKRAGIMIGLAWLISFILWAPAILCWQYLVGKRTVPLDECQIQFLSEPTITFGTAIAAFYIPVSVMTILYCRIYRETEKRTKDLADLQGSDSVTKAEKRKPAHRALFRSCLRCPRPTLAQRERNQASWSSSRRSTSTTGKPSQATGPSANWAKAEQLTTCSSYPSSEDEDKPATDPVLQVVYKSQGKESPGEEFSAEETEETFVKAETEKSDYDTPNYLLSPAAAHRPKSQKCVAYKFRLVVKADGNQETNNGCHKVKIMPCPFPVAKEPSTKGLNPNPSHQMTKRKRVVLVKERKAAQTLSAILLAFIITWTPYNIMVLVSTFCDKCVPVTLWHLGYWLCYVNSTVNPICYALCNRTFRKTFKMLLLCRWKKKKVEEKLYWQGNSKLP", "assay": "Partial agonist activity at human M5 receptor in CHO cells assessed as calcium mobilization at 3 uM after 60 mins by FLIPR assay", "type": "functional, cell-based"}, "[2]": {"target": "T2, Muscarinic acetylcholine receptor M1 (Homo sapiens) (UniProt P11229)", "T2 sequence (whole entry)": "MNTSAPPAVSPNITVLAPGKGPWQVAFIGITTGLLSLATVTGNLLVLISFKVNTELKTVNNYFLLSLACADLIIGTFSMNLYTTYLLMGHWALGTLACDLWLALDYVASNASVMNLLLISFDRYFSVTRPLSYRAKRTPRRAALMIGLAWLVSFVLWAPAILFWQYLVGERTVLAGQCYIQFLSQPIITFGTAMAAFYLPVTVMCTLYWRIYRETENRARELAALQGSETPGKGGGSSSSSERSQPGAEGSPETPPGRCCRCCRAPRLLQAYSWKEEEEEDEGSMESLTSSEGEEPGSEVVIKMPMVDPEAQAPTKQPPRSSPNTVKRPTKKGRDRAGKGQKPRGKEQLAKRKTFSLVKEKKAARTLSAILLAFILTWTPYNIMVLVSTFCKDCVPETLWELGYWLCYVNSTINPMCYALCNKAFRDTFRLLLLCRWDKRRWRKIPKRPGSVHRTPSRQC", "assay": "Partial agonist activity at human M1 receptor in CHO cells assessed as calcium mobilization at 3 uM after 60 mins by FLIPR assay", "type": "functional, cell-based"}, "Cynomolgus monkey": {"system": "Cynomolgus monkey", "assay": "Cardiotoxicity in telemetered cynomolgus monkey assessed as increase in heart rate at 1.5 to 6 mg/kg, sc measured after 1 to 4 hrs by telemetry method", "type": "toxicity, organism-based, Macaca fascicularis", "set-up": "route subcutaneous", "details": "in vivo"}, "[3]": {"target": "T3, Muscarinic acetylcholine receptor M2 (Homo sapiens) (UniProt P08172)", "T3 sequence (whole entry)": "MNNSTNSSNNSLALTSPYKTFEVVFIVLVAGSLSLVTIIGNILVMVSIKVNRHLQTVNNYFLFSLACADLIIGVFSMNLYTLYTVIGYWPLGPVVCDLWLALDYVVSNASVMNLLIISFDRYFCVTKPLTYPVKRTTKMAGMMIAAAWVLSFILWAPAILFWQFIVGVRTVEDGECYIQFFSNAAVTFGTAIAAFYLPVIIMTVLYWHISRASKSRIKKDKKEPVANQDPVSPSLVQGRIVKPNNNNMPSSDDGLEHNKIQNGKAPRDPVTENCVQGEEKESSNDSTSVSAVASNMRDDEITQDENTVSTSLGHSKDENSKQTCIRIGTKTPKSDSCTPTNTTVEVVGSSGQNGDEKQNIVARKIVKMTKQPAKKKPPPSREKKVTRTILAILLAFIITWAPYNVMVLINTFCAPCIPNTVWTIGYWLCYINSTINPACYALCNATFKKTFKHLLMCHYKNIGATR", "assay": "Partial agonist activity at human M2 receptor co-expressed with Galpha16 in CHO cells assessed as calcium mobilization at 30 uM after 60 mins by FLIPR assay", "type": "functional, cell-based"}, "[4]": {"target": "T3, Muscarinic acetylcholine receptor M2 (Homo sapiens)", "assay": "Partial agonist activity at human M2 receptor co-expressed with Galpha16 in CHO cells assessed as calcium mobilization at 3 uM after 60 mins by FLIPR assay", "type": "functional, cell-based"}}, "note": "The source made the active and inactive calls. The calls are words filed in the database; no cut-off is given here."}
{"smiles": "CCOC(=O)N1[C@@H]2CC[C@H]1C[C@H](CN1CC[C@H](N3C(=O)Cc4ccccc43)C1)C2", "values": [{"measurement": "Activity", "setting": "[1]", "value": 17, "unit": "%"}, {"measurement": "Activity", "setting": "[2]", "value": 63, "unit": "%"}, {"measurement": "Activity", "setting": "Cynomolgus monkey", "value": "Toxic"}, {"measurement": "Activity", "setting": "[3]", "value": "inactive"}, {"measurement": "Activity", "setting": "[4]", "value": 25, "unit": "%"}]}
